Measured values published in US4181716A, “Antibiotics” (Beecham Group Limited, priority 1974, dated 1980).
Where a name gives a salt, the structure may show the parent alone.

Experiments:
[1] = test system: Enterobacter cloacae N1; assay: MIC, microtitre method (Table 10); format: cell-based; conditions: heavy inoculum, 1/100 overnight broth
Protocol: (§1) Partially purified MM 4550Adi-sodium salt (0.55 g) was chromatographed on a cellulose column (4.5 cm×29 cm; Whatman CC31 cellulose) eluted with n-propanol/water (4:1 v/v) at a flow rate of 2.5 ml./min. The first 135 ml of eluate was discarded and then 15 ml fractions collected.
(§2) ANTIBACTERIAL ACTIVITY OF THE DI-SODIUM
(§3) SALT OF MM 4550A ([…]-HEAVY
(§4) INOCULUM, 1/100 OVERNIGHT BROTH

[2] = test system: Bacillus subtilis A; assay: MIC, microtitre method (Table 10); format: cell-based; conditions: heavy inoculum, 1/100 overnight broth
Protocol: as §1, §2, §3, §4

[3] = test system: Proteus vulgaris WO 90; assay: MIC, microtitre method (Table 10); format: cell-based; conditions: heavy inoculum, 1/100 overnight broth
Protocol: as §1, §2, §3, §4

[4] = test system: Ps. aeruginosa A; assay: MIC, microtitre method (Table 10); format: cell-based; conditions: heavy inoculum, 1/100 overnight broth
Protocol: as §1, §2, §3, §4

[5] = test system: Proteus mirabilis 13; assay: MIC, microtitre method (Table 10); format: cell-based; conditions: heavy inoculum, 1/100 overnight broth
Protocol: as §1, §2, §3, §4

[6] = test system: Shigella sonnei; assay: MIC, microtitre method (Table 10); format: cell-based; conditions: heavy inoculum, 1/100 overnight broth
Protocol: as §1, §2, §3, §4

[7] = test system: Serratia marcescens US 39; assay: MIC, microtitre method (Table 10); format: cell-based; conditions: heavy inoculum, 1/100 overnight broth
Protocol: as §1, §2, §3, §4

[8] = test system: Salmonella typhimurium CT 10; assay: MIC, microtitre method (Table 10); format: cell-based; conditions: heavy inoculum, 1/100 overnight broth
Protocol: as §1, §2, §3, §4

[9] = test system: Prov. stuartii; assay: MIC, microtitre method (Table 10); format: cell-based; conditions: heavy inoculum, 1/100 overnight broth
Protocol: as §1, §2, §3, §4

[10] = test system: Staph. aureus Russell; assay: MIC, microtitre method (Table 10); format: cell-based; conditions: heavy inoculum, 1/100 overnight broth
Protocol: as §1, §2, §3, §4

[11] = test system: Kleb. aerogenes A; assay: MIC, microtitre method (Table 10); format: cell-based; conditions: heavy inoculum, 1/100 overnight broth
Protocol: as §1, §2, §3, §4

[12] = test system: Strep. faecalis; assay: MIC, microtitre method (Table 10); format: cell-based; conditions: heavy inoculum, 1/100 overnight broth
Protocol: as §1, §2, §3, §4

[13] = test system: Staph. aureus Oxford; assay: MIC, microtitre method (Table 10); format: cell-based; conditions: heavy inoculum, 1/100 overnight broth
Protocol: as §1, §2, §3, §4

[14] = test system: Klebsiella aerogenes; assay: assay of activity in units against culture filtrate; format: cell-based
Protocol: The MM 4550 (Complex) was eluted from the resin with 5% NaCl in 50% aqueous methanol. […] The MM 4550 (Complex) content of culture filtrate was arbitrarily set at 8 units/ml. The eluted fractions from the column were assayed using an antibacterial diffusion method against Klebsiella aerogenes and the activity units were calculated by reference to a standard line prepared by plotting zone diameter against units/ml. for various dilutions of culture filtrate (i.e. the culture filtrate was used as a standard).
The material produced above was arbitrarily assigned an activity of 340 l/ml. Assays were determined as described in Description 3.

[15] = test system: chymotrypsin; assay: enzyme inhibition (not a general enzyme poison); format: biochemical; conditions: at concentrations in excess of those required to inhibit the β-lactamase of E. coli
[16] = test system: Staphylococcus aureus (Oxford); assay: antibacterial activity by bioautography (Table 4); format: cell-based; conditions: TLC with cellulose, butanol/isopropyl alcohol/water 7:7:6 v/v
Description: (§5) Analysis of the preparation by thin layer chromatography on cellulose (Eastman Kodak "Chromagram" sheets) developed with n-butanol; isopropanol:water (7:7:6) separated two active substances, one with an approximate Rf of 0.54 which was designated MM 4550 A and one with an approximate Rf of 0.72 which was designated MM 13902.
(§6) 13902 AS DETERMINED BY BIOAUTOGRAPHY (TLC
(§7) WITH CELLULOSE AND BUTONAL/ISOPROPYL
(§8) ALCOHOL/WATER 7:7:6 v/v)

[17] = test system: Staphylococcus aureus (Russell); assay: antibacterial activity by bioautography (Table 4); format: cell-based; conditions: TLC with cellulose, butanol/isopropyl alcohol/water 7:7:6 v/v
Description: as §5, §6, §7, §8

[18] = test system: Salmonella typhi; assay: antibacterial activity by bioautography (Table 4); format: cell-based; conditions: TLC with cellulose, butanol/isopropyl alcohol/water 7:7:6 v/v
Description: as §5, §6, §7, §8

[19] = test system: Enterobacter aerogenes; assay: antibacterial activity by bioautography (Table 4); format: cell-based; conditions: TLC with cellulose, butanol/isopropyl alcohol/water 7:7:6 v/v
Description: as §5, §6, §7, §8

[20] = test system: Klebsiella aerogenes; assay: antibacterial activity by bioautography (Table 4); format: cell-based; conditions: TLC with cellulose, butanol/isopropyl alcohol/water 7:7:6 v/v
Description: as §5, §6, §7, §8

[21] = test system: Bacillus subtilis; assay: antibacterial activity by bioautography (Table 4); format: cell-based; conditions: TLC with cellulose, butanol/isopropyl alcohol/water 7:7:6 v/v
Description: as §5, §6, §7, §8

[22] = test system: Escherichia coli 10418; assay: antibacterial activity by bioautography (Table 4); format: cell-based; conditions: TLC with cellulose, butanol/isopropyl alcohol/water 7:7:6 v/v
Description: as §5, §6, §7, §8

[23] = test system: Proteus morganii; assay: antibacterial activity by bioautography (Table 4); format: cell-based; conditions: TLC with cellulose, butanol/isopropyl alcohol/water 7:7:6 v/v
Description: as §5, §6, §7, §8

[24] = test system: trypsin; assay: enzyme inhibition (not a general enzyme poison); format: biochemical; conditions: at concentrations in excess of those required to inhibit the β-lactamase of E. coli
[25] = test system: dopa decarboxylase; assay: enzyme inhibition (not a general enzyme poison); format: biochemical; conditions: at concentrations in excess of those required to inhibit the β-lactamase of E. coli
[26] = solubility; format: physicochemical; conditions: sodium salt
[27] = test system: carbonic anhydrase; assay: enzyme inhibition (not a general enzyme poison); format: biochemical; conditions: at concentrations in excess of those required to inhibit the β-lactamase of E. coli
[28] = test system: Staphylococcus aureus, Bacillus subtilis, Escherichia coli, Klebsiella aerogenes, Proteus mirabilis, Acinetobacter anitratus, Serratia marcescens and Shigella …; assay: antibacterial activity (property list); format: cell-based, bacteria; conditions: substantially pure sodium salt
[29] = test system: monoamine oxidase; assay: enzyme inhibition (not a general enzyme poison); format: biochemical; conditions: at concentrations in excess of those required to inhibit the β-lactamase of E. coli
[30] = stability; format: physicochemical
[31] = test system: Escherichia coli, Klebsiella aerogenes, Proteus mirabilis, Proteus morganii and Staphylococcus aureus Russell; assay: synergism with ampicillin (property list); format: cell-based, bacteria; conditions: sodium salt
[32] = test system: urease; assay: enzyme inhibition (not a general enzyme poison); format: biochemical; conditions: at concentrations in excess of those required to inhibit the β-lactamase of E. coli
[33] = test system: Staphylococcus aureus, Bacillus subtilis, Escherichia coli, Klebsiella aerogenes, Proteus mirabilis, Salmonella typhi and Pseudomonas aeruginosa; assay: antibacterial activity (property list); format: cell-based, bacteria; conditions: sodium salt
[34] = test system: Escherichia coli 311; assay: antibacterial activity by bioautography (Table 4); format: cell-based; conditions: TLC with cellulose, butanol/isopropyl alcohol/water 7:7:6 v/v
Description: as §5, §6, §7, §8

[35] = test system: Proteus mirabilis; assay: antibacterial activity by bioautography (Table 4); format: cell-based; conditions: TLC with cellulose, butanol/isopropyl alcohol/water 7:7:6 v/v
Description: as §5, §6, §7, §8

## CC(=O)N/C=C/[S+]([O-])C1=C(C(=O)O)N2C(=O)C(C(C)OS(=O)(=O)O)C2C1 (stereo not drawn) [di-sodium salt of MM 4550A]
[1]
  MIC: 100 µg/mL
[2]
  MIC: 25 µg/mL
[3]
  MIC: 5 µg/mL
[4]
  MIC: > 100 µg/mL
[5]
  MIC: 10 µg/mL
[6]
  MIC: 5 µg/mL
[7]
  MIC: 20 µg/mL
[8]
  MIC: 5 µg/mL
[9]
  MIC: 5 µg/mL
[10]
  MIC: 20 µg/mL
[11]
  MIC: 2.5 µg/mL
[12]
  MIC: 100 µg/mL
[13]
  MIC: 20 µg/mL
[14]; Example 3, yellowish powder (87 mg) after cellulose column
  activity: 6,600 units/mg

## CC(=O)N/C=C/[S+]([O-])C1=C(C(=O)O)N2C(=O)C(C(C)OS(=O)(=O)O)C2C1 (stereo not drawn) [MM 4550A]
[15]
  inhibition of chymotrypsin: does not inhibit
[16]
  Zone Diameter on Bioautography: 13.0 mm
[17]
  Zone Diameter on Bioautography: 12.0 mm
[18]
  Zone Diameter on Bioautography: 19.5 mm
[19]
  Zone Diameter on Bioautography: 6.5 mm
[20]
  Zone Diameter on Bioautography: 20.0 mm
[21]
  Zone Diameter on Bioautography: 24.0 mm
[22]
  Zone Diameter on Bioautography: 20.0 mm
[23]
  Zone Diameter on Bioautography: 16.0 mm
[24]
  inhibition of trypsin: does not inhibit
[25]
  inhibition of dopa decarboxylase: does not inhibit
[26]
  solubility in chloroform, diethylether and hydrocarbons: substantially insoluble
  solubility in methanol: soluble
  solubility in water: highly soluble
[27]
  inhibition of carbonic anhydrase: does not inhibit
[28]
  antibacterial activity: possesses antibacterial activity
[29]
  inhibition of monoamine oxidase: does not inhibit
[30]; monobasic salts and free acid
  stability for isolation from mixtures: not sufficiently stable to isolate from mixtures
[30]; unsalted acid form
  stability: tends to be unstable
[31]
  synergism when mixed with ampicillin: synergizes its activity
[32]
  inhibition of urease: does not inhibit
[14]; Example 3, partially purified salt (2.18 g brown solid)
  activity: 3,100 units/mg

## CC(=O)N/C=C/SC1=C(C(=O)O)N2C(=O)C(C(C)OS(=O)(=O)O)C2C1 (stereo not drawn) [MM 13902]
[33]
  antibacterial activity: possesses antibacterial activity
[34]
  Zone Diameter on Bioautography: 10.5 mm
[16]
  Zone Diameter on Bioautography: 4.0 mm
[17]
  Zone Diameter on Bioautography: 4.0 mm
[18]
  Zone Diameter on Bioautography: 21.0 mm
[19]
  Zone Diameter on Bioautography: No Zone
[20]
  Zone Diameter on Bioautography: 20.0 mm
[21]
  Zone Diameter on Bioautography: 15.0 mm
[22]
  Zone Diameter on Bioautography: 13.5 mm
[35]
  Zone Diameter on Bioautography: 13.5 mm
[23]
  Zone Diameter on Bioautography: 9.5 mm
[31]
  synergism when mixed with ampicillin: synergyses its activity
